Several values for one entry are separate records, joined by “and”; a condition that tells them apart may be missing. Identical values can stand only once.
Assays:
M-cadherin = assay: Quantitative real-time PCR, M-cadherin; assay type: cell-based, mouse; details: C2C12 cells, 10 μM; for Normarized mRNA abundance, M-cadherin: listed as IBS008738
Description: (1) Quantitative real-time PCR was performed with C2C12 cells immediately before the induction of muscle formation (0 h), and after culturing under differentiation condition in a culture medium added with IBS008738 or DMSO at a concentration of 10 μM for 24 hours (24 h) and 72 hours (72 h), respectively. […] The line and error bar indicate the average value and the standard error, **p<0.05, and ns refers to not significant.
Evaluation was also performed under the same condition on M-cadherin, calpain 1 and caveolin 3, which are myofusion markers. As a result, there was no increase in the degree of gene transcription in the case with IBS008738.
The quantitative real-time PCR was performed with SYBER Green (Roche) and ABI7500 Realtime PCR system (Applied Biosystems).

SMAD reporter = assay: Luciferase reporter assay, SMAD reporter; assay type: cell-based; details: Mus musculus, C2C12, 24 h, C2C12 cells expressing reporter and TAZ WT, differentiation medium 24 hours
Description: The effect and its degree on the activity of a reporter, derived from a transcription factor that interacts with TAZ in C2C12 cells, were evaluated. Specifically, C2C12 cells expressing luciferase reporters corresponding to MyoD, TEAD, SMAD and Pax3 and C2C12 cells expressing these luciferase reporters and TAZ were cultured in a culture medium added with IBS008738 or DMSO at a concentration of 10 μM, respectively. […] The line and the error bar indicate the average value and the standard error, *p<0.05, **p<0.01, ns refers to not significant.
Transfection of the luciferase reporters was performed to the C2C12 cells after being plated at 12-well plates (1×10^5 cells/well) and cultured overnight. As the luciferase reporters, pGL3 Myo-184- (MyoD-), 8×GT-IIC-δ51LucII- (TEAD-), 9×CAGA-MLP-(SMAD-), and p(PRS-1/-4)3- (Pax3-) were transfected to the cells alone or with TAZ. These reporter vectors were from Keiji Miyazawa (Yamanashi University), Hiroshi Sasaki (Kumamoto University) and Hiroki Kurihara (The University of Tokyo).
Immediately after the transfection, DMSO or IBS008738 was added at a concentration of 10 μM, respectively. After growing the cells to confluence, the cells were transferred to a differentiation medium with DMSO or IBS008738, and cultured for 24 hours before the luciferase assay.

[1] = test system: binding of Pax3 to Myf5 promoter; assay: Chromatin immunoprecipitation, Pax3 on Myf5 promoter; assay type: cell-based, mouse; details: C2C12 cells; 10 μM; differentiation condition 24 hours; protein G sepharose without antibody; listed as IBS008738
Description: (1) Chromatin immunoprecipitation of MyoD, TEAD and Pax3 was performed on C2C12 cells that were cultured under differentiation condition for 24 hours in a culture medium added with IBS008738 or DMSO at a concentration of 10 μM. Myogenin, connective tissue growth factor (CTGF) and MyfS were detected by PCR, respectively. The immunoprecipitation with protein G sepharose was used as a control (Mock ChIP). […] The line and the error bar in the figure indicate the average value and the standard error, *p<0.05, ***p<0.001, ns refers to not significant.
The Chromatin immunoprecipitation was performed according to the following process. C2C12 cells were cultured to confluence, and then treated with IBS008738 or DMSO at a concentration of 10 μM in a differentiation medium for 24 hours. The cells were crosslinked in 1.42% (v/v) formaldehyde for 15 minutes, and the reaction was quenched by treating with 125 mM glycine for 5 minutes. […] Shearing was analyzed by agarose gel electrophoresis. […] The immunoprecipitated DNA fragments were isolated using Chelex-100 resin and diluted by 1:2.5 for quantitative PCR analysis. Input normalized relative abundance was determined.

SMILES: Cc1ccc(-n2cnc(/N=C/N3CCOCC3)c2C(=O)c2ccccc2)cc1 [exemplary compound 1]
- degree of gene transcription of M-cadherin (M-cadherin; 24 h and 72 h): no increase
- Normarized mRNA abundance, M-cadherin (M-cadherin; differentiation condition 24 h): 1.66 and 1.61 and 1.64
- Normarized mRNA abundance, M-cadherin (M-cadherin; differentiation condition 72 h): 0.82 and 0.87 and 0.80
- fold induction at 10 µM (SMAD reporter): 2.09
- Input %, Myf5-p, Mock ChIP [1]: 0.14% and 0.13% and 0.16%

Reference: patent US10653672B2, “Myogenesis promotor, muscle atrophy inhibitor, medical composition and TAZ activator” (National University Corporation Tokyo Medical and Dental …, priority 2014, dated 2020)
